Data reported in ChEMBL document CHEMBL1130406, “Ortho-substituted benzofused macrocyclic lactams as zinc metalloprotease inhibitors” (J Med Chem, 1997).

Columns and labels:
Neprilysin = Neprilysin (Homo sapiens, UniProt P08473); assay: Inhibition of neutral endopeptidase
Thermolysin = biological target: T1, Thermolysin (Bacillus thermoproteolyticus, UniProt P00800); assay: Inhibitory concentration required to inhibit thermolysin
T1 sequence (P00800 whole entry): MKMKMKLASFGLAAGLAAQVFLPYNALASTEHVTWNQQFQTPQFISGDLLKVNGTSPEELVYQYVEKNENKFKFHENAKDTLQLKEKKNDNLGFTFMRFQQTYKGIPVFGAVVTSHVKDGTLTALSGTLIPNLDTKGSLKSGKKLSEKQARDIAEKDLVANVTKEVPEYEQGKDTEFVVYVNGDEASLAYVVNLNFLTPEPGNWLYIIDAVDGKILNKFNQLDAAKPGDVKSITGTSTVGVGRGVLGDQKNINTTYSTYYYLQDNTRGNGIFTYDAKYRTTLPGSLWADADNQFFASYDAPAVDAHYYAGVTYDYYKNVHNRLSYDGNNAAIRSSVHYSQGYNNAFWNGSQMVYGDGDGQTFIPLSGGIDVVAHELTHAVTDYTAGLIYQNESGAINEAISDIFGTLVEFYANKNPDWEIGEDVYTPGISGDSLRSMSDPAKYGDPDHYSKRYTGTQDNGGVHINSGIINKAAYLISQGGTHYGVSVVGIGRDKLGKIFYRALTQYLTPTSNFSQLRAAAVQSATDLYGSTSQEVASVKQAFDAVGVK

Chain of Neprilysin (P08473 whole entry): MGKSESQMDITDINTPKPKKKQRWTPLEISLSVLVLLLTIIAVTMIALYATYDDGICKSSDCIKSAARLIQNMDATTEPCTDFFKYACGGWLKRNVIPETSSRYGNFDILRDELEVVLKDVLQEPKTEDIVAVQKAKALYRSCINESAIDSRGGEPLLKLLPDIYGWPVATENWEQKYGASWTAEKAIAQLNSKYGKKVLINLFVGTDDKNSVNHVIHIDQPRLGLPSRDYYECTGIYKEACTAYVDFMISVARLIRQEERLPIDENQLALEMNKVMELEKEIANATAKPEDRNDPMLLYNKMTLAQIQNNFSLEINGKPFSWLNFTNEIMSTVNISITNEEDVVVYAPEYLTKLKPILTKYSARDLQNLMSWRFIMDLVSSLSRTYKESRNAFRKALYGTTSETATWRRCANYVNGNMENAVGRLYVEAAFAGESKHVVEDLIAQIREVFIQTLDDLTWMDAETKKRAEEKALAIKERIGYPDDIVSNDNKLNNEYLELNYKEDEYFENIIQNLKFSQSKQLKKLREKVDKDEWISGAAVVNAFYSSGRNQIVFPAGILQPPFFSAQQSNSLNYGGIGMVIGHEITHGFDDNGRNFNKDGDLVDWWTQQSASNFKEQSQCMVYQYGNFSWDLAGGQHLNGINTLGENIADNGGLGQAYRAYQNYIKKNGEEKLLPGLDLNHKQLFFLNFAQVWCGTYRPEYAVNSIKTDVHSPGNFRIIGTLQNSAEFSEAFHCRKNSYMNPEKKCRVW

Row | SMILES | IC50 (Neprilysin) [nM] | IC50 (Thermolysin) [nM]
1 | O=C1N[C@H](C(=O)O)Cc2ccccc2CCCCCC[C@@H]1CS | 67 | 40000
2 | O=C1N[C@H](C(=O)O)Cc2ccccc2CCCCCCC[C@@H]1CS | 900 | –
3 | O=C1N[C@@H](C(=O)O)Cc2ccccc2CCCCCC[C@@H]1CS | 136 | 16000
4 | O=C(O)CNC(=O)C(CS)Cc1ccccc1 (configuration not stated) [THIORPHAN] | – | 9500
5 | O=C1N[C@@H](C(=O)O)Cc2ccccc2CCCCCCC[C@@H]1CS | > 10000 | 60000

Other lines, results leading:

Row | IC50 (Neprilysin) [nM] | IC50 (Thermolysin) [nM] | SMILES
6 | 99 | 49000 | O=C1N[C@@H](C(=O)O)Cc2ccccc2CCCCC[C@@H]1CS
7 | 7 | 2300 | O=C1N[C@H](C(=O)O)CCCCc2ccccc2C[C@H]1CS
8 | 224 | 41000 | O=C1N[C@H](C(=O)O)CCCCCCc2ccccc2C[C@@H]1CS
9 | 4 | 4000 | O=C1N[C@H](C(=O)O)CCCCCc2ccccc2C[C@H]1CS
10 | 3 | 600 | O=C1N[C@H](C(=O)O)CCCCCc2ccccc2C[C@@H]1CS
11 | 27 | 1800 | O=C1N[C@H](C(=O)O)CCCCCCc2ccccc2C[C@H]1CS
12 | 0.9 | 68 | O=C1N[C@H](C(=O)O)CCCCc2ccccc2C[C@@H]1CS
